Bounds are passed on as bounds.

These results are taken from patent publication US20250144094A1 (Erasca, Inc., priority 2021, published 2025).

Chain of Recombinant human ULK1 (1-649) (O75385 1-649): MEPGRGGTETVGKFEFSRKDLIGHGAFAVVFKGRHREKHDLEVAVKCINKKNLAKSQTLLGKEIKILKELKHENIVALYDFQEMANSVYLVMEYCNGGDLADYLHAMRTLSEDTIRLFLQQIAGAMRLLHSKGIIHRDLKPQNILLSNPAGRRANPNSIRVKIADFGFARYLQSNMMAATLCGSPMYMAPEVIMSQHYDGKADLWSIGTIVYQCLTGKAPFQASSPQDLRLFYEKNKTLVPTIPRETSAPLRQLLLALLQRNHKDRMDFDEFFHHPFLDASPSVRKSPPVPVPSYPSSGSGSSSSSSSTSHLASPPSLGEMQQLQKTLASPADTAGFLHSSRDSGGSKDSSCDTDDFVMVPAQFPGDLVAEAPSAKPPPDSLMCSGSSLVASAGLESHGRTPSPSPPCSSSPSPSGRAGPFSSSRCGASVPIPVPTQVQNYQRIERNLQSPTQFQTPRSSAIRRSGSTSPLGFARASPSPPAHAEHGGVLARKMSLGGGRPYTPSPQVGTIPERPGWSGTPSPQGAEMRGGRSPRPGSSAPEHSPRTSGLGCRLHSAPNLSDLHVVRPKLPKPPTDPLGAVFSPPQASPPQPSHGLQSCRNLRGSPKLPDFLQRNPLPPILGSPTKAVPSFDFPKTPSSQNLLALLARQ

The target in the test is Recombinant human ULK1 (1-649) (Homo sapiens (Human), UniProt O75385). The experiment in a line: ULK1 ADP Glo kinase activity assay, new method (ULKtide peptide substrate). The conditions noted are these: 25° C., 40 minutes, read-out: ULK1 biochemical IC50. How it is done:
Recombinant human ULK1 (1-649) protein expressed in Sf9 insect cells was obtained from SignalChem (Vancouver, BC), catalog #U01-11G. Active kinase was purified via N-terminal GST tag to >85% purity.
ADP GLO Kinase Assay Reagents were obtained from Promega Corp (Madison, WI), catalog #V9104.
Synthetic peptide substrate (ULKtide) with the amino acid sequence YANWLAASIYLDGKKK was obtained from ThermoFisher Scientific USA.
ULK1 inhibitor potency was determined using the luminescent ADP Glo Kinase Assay (Promega), a universal ADP detection system that measures kinase activity by quantifying the amount of ADP produced during a kinase reaction. ULK1 kinase reactions are performed in a standard 96-well microplate (20 μL reaction volume) at 25° C. for 40 minutes in the presence or absence of the test compound (12-point dilution series starting at 10 μM). Addition of peptide substrate and ATP initiates the kinase reaction.
The standard ADP Glo assay is performed in two steps. In step one, following the kinase reaction, an equal volume of ADP-Glo™ Reagent (20 μL) is added to terminate the kinase reaction and deplete the remaining ATP. In the second step, the Kinase Detection Reagent (10 μL) is added to simultaneously convert ADP to ATP and allow the newly synthesized ATP to be measured using a luciferase/luciferin reaction. Step two of the ADP Glo assay is performed in a white 384-well plate (20 μL final volume). Thirty minutes after the addition of the Detection reagent, light generated from the luciferase reaction is measured (1 second exposure) using a microplate compatible luminometer (CLARIOstar, BMG Labtech).
Inhibition of ULK1 kinase activity is determined for each test compound by comparison to DMSO only control wells. Inhibitor IC50 was calculated by plotting the change in luminescence after 30 minutes (response) versus inhibitor concentration (in log molar) then applying the four-parameter variable slope curve fit (GraphPad Prism). Inhibition of ULK1 in biochemical assay is found in Table 4.
Background: ADP-Glo first removes unused ATP, then detects ADP through luciferase.
A word on the IC50: it is the concentration that inhibits the measured activity by half. For the molecule “4-cyclopropyl-7-(2-((4-(1-(2,2-difluoroethyl)piperidin-4-yl)-2-ethylphenyl)amino)-5-(trifluoromethyl)pyrimidin-4-yl)-3,4-dihydrothieno[2,3-f][1,4]thiazepin-5(2H)-one 1,1-dioxide [Example 281]”, the IC50 lay in the range of 5 to 10 nM.
The same measure for `Cc1ccc(C2CNC2)cc1Nc1ncc(C(F)(F)F)c(-c2cc(S(C)(=O)=O)cs2)n1` [Example 136, N-(5-(azetidin-3-yl)-2-methylphenyl)-4-(4-(methylsulfonyl)thiophen-2-yl)-5-(trifluoromethyl)pyrimidin-2-amine]: 50 to 100 nM; for `Cc1ccc(C2CN(C)C2)cc1Nc1ncc(C(F)(F)F)c(-c2cc(S(C)(=O)=O)cs2)n1` [Example 137, N-(2-Methyl-5-(1-methylazetidin-3-yl)phenyl)-4-(4-(methylsulfonyl)thiophen-2-yl)-5-(trifluoromethyl)pyrimidin-2-amine]: greater than 100 nM.
For `CCc1cc2c(cc1Nc1ncc(C(F)(F)F)c(-c3cc4c(s3)C(=O)NCCS4(=O)=O)n1)CCNC2` [Example 138, 7-(2-((7-ethyl-1,2,3,4-tetrahydroisoquinolin-6-yl)amino)-5-(trifluoromethyl)pyrimidin-4-yl)-3,4-dihydrothieno[2,3-f][1,4]thiazepin-5(2H)-one 1,1-dioxide], the IC50 is no more than 5 nM.
For `CN1CCc2cc(Nc3ncc(C(F)(F)F)c(-c4cc5c(s4)C(=O)NCCS5(=O)=O)n3)c(F)cc2C1` [Example 139, 7-(2-((7-fluoro-2-methyl-1,2,3,4-tetrahydroisoquinolin-6-yl)amino)-5-(trifluoromethyl)pyrimidin-4-yl)-3,4-dihydrothieno[2,3-f][1,4]thiazepin-5(2H)-one 1,1-dioxide], the IC50 is no more than 5 nM.
The result for `CN1CCc2cc(Nc3ncc(C(F)(F)F)c(-c4cc5c(s4)C(=O)N(C)CCS5(=O)=O)n3)c(F)cc2C1` [Example 140, 7-(2-((7-fluoro-2-methyl-1,2,3,4-tetrahydroisoquinolin-6-yl)amino)-5-(trifluoromethyl)pyrimidin-4-yl)-4-methyl-3,4-dihydrothieno[2,3-f][1,4]thiazepin-5(2H)-one 1,1-dioxide] reads no more than 5 nM; that for `CN1CCS(=O)(=O)c2cc(-c3nc(Nc4cn(C5CCNCC5)nc4C4CC4)ncc3C(F)(F)F)sc2C1=O` [Example 141, 7-(2-((3-cyclopropyl-1-(piperidin-4-yl)-1H-pyrazol-4-yl)amino)-5-(trifluoromethyl)pyrimidin-4-yl)-4-methyl-3,4-dihydrothieno[2,3-f][1,4]thiazepin-5(2H)-one 1,1-dioxide], no more than 5 nM.
The same measure for `CCN1CCS(=O)(=O)c2cc(-c3nc(Nc4cc5c(cc4Cl)CN(C)CC5)ncc3C(F)(F)F)sc2C1=O` [Example 142, 7-(2-((7-chloro-2-methyl-1,2,3,4-tetrahydroisoquinolin-6-yl)amino)-5-(trifluoromethyl)pyrimidin-4-yl)-4-ethyl-3,4-dihydrothieno[2,3-f][1,4]thiazepin-5(2H)-one 1,1-dioxide]: no more than 5 nM.
On to `O=C1c2sc(-c3nc(Nc4cc5c(cc4Cl)CNCC5)ncc3C(F)(F)F)cc2S(=O)(=O)CCN1CC(F)(F)F` [Example 143, 7-(2-((7-chloro-1,2,3,4-tetrahydroisoquinolin-6-yl)amino)-5-(trifluoromethyl)pyrimidin-4-yl)-4-(2,2,2-trifluoroethyl)-3,4-dihydrothieno[2,3-f][1,4]thiazepin-5(2H)-one 1,1-dioxide], for which the IC50 is no more than 5 nM.
As for `CN1CCc2cc(Nc3ncc(C(F)(F)F)c(-c4cc5c(s4)C(=O)N(CC(F)(F)F)CCS5(=O)=O)n3)c(Cl)cc2C1` [Example 144, 7-(2-((7-chloro-2-methyl-1,2,3,4-tetrahydroisoquinolin-6-yl)amino)-5-(trifluoromethyl)pyrimidin-4-yl)-4-(2,2,2-trifluoroethyl)-3,4-dihydrothieno[2,3-f][1,4]thiazepin-5(2H)-one 1,1-dioxide], the IC50 was no more than 5 nM.
`CN1CC(n2cc(Nc3ncc(C(F)(F)F)c(-c4cc(S(C)(=O)=O)cs4)n3)c(C3CC3)n2)C1` [Example 145, N-(3-cyclopropyl-1-(1-methylazetidin-3-yl)-1H-pyrazol-4-yl)-4-(4-(methylsulfonyl)thiophen-2-yl)-5-(trifluoromethyl)pyrimidin-2-amine]: the IC50 fell in the range of 5 to 10 nM.
On to `CCc1cc2c(cc1Nc1ncc(C(F)(F)F)c(-c3cc4c(s3)C(=O)NCCS4(=O)=O)n1)CCN(C)C2` [Example 146, 7-(2-((7-ethyl-2-methyl-1,2,3,4-tetrahydroisoquinolin-6-yl)amino)-5-(trifluoromethyl)pyrimidin-4-yl)-3,4-dihydrothieno[2,3-f][1,4]thiazepin-5(2H)-one 1,1-dioxide], for which the IC50 is no more than 5 nM.
Turning to `CCc1cc2c(cc1Nc1ncc(C(F)(F)F)c(-c3cc4c(s3)C(=O)N(C)CCS4(=O)=O)n1)CCNC2` [Example 147, 7-(2-((7-ethyl-1,2,3,4-tetrahydroisoquinolin-6-yl)amino)-5-(trifluoromethyl)pyrimidin-4-yl)-4-methyl-3,4-dihydrothieno[2,3-f][1,4]thiazepin-5(2H)-one 1,1-dioxide], the IC50 is no more than 5 nM.
For `CCc1cc2c(cc1Nc1ncc(C(F)(F)F)c(-c3cc4c(s3)C(=O)N(C)CCS4(=O)=O)n1)CCN(C)C2` [Example 148, 7-(2-((7-ethyl-2-methyl-1,2,3,4-tetrahydroisoquinolin-6-yl)amino)-5-(trifluoromethyl)pyrimidin-4-yl)-4-methyl-3,4-dihydrothieno[2,3-f][1,4]thiazepin-5(2H)-one 1,1-dioxide], the half-maximal inhibitory concentration (IC50) was no more than 5 nM.
With `CN1CCS(=O)(=O)c2cc(-c3nc(Nc4cc(C5CCNCC5)ccc4Cl)ncc3C(F)(F)F)sc2C1=O` [Example 149, 7-(2-((2-chloro-5-(piperidin-4-yl)phenyl)amino)-5-(trifluoromethyl)pyrimidin-4-yl)-4-methyl-3,4-dihydrothieno[2,3-f][1,4]thiazepin-5(2H)-one 1,1-dioxide], the IC50 was in the range of 10 to 50 nM.
Regarding `CN1CCC(c2ccc(Cl)c(Nc3ncc(C(F)(F)F)c(-c4cc5c(s4)C(=O)N(C)CCS5(=O)=O)n3)c2)CC1` [Example 150, 7-(2-((2-chloro-5-(1-methylpiperidin-4-yl)phenyl)amino)-5-(trifluoromethyl)pyrimidin-4-yl)-4-methyl-3,4-dihydrothieno[2,3-f][1,4]thiazepin-5(2H)-one 1,1-dioxide], the IC50 was 10 to 50 nM.
For the molecule `O=C1NCCS(=O)(=O)c2cc(-c3nc(Nc4cn(C5CCNCC5)nc4C4CC4)ncc3C(F)(F)F)sc21` [Example 151, 7-(2-((3-cyclopropyl-1-(piperidin-4-yl)-1H-pyrazol-4-yl)amino)-5-(trifluoromethyl)pyrimidin-4-yl)-3,4-dihydrothieno[2,3-f][1,4]thiazepin-5(2H)-one 1,1-dioxide], the IC50 was no more than 5 nM.
In the case of `CN1CCC(n2cc(Nc3ncc(C(F)(F)F)c(-c4cc5c(s4)C(=O)NCCS5(=O)=O)n3)c(C3CC3)n2)CC1` [Example 152, 7-(2-((3-cyclopropyl-1-(1-methylpiperidin-4-yl)-1H-pyrazol-4-yl)amino)-5-(trifluoromethyl)pyrimidin-4-yl)-3,4-dihydrothieno[2,3-f][1,4]thiazepin-5(2H)-one 1,1-dioxide], the IC50 is no more than 5 nM.
In the case of `CN1CCc2cc(Nc3ncc(C(F)(F)F)c(-c4cc5c(s4)C(=O)N(CC4CC4)CCS5(=O)=O)n3)c(Cl)cc2C1` [Example 154, 7-(2-((7-chloro-2-methyl-1,2,3,4-tetrahydroisoquinolin-6-yl)amino)-5-(trifluoromethyl)pyrimidin-4-yl)-4-(cyclopropylmethyl)-3,4-dihydrothieno[2,3-f][1,4]thiazepin-5(2H)-one 1,1-dioxide], the IC50 was no more than 5 nM.
On to `O=C1c2sc(-c3nc(Nc4cc5c(cc4Cl)CNCC5)ncc3C(F)(F)F)cc2S(=O)(=O)CCN1C1CC1` [Example 155, 7-(2-((7-chloro-1,2,3,4-tetrahydroisoquinolin-6-yl)amino)-5-(trifluoromethyl)pyrimidin-4-yl)-4-cyclopropyl-3,4-dihydrothieno[2,3-f][1,4]thiazepin-5(2H)-one 1,1-dioxide], for which the IC50 was no more than 5 nM.
With `CN1CCS(=O)(=O)c2cc(-c3nc(Nc4cc5c(cc4Cl)CNCC5)ncc3C(F)(F)F)sc2C1=O` [Example 156, 7-(2-((7-chloro-1,2,3,4-tetrahydroisoquinolin-6-yl)amino)-5-(trifluoromethyl)pyrimidin-4-yl)-4-methyl-3,4-dihydrothieno[2,3-f][1,4]thiazepin-5(2H)-one 1,1-dioxide], the IC50 is no more than 5 nM.
For `CN1CCS(=O)(=O)c2cc(-c3nc(Nc4cc5c(cc4F)CNC5)ncc3C(F)(F)F)sc2C1=O` [Example 157, 7-(2-((6-fluoroisoindolin-5-yl)amino)-5-(trifluoromethyl)pyrimidin-4-yl)-4-methyl-3,4-dihydrothieno[2,3-f][1,4]thiazepin-5(2H)-one 1,1-dioxide], the IC50 was no more than 5 nM.
